Data from US12365675B2, “Stable heavy isotopes in amide functional groups and uses thereof” (RISEN (SUZHOU) PHARMA TECH CO., LTD., priority 2020, dated 2025).

Experiments:
[1] = Pharmacokinetic studies in beagle dogs, single oral dose; format: in vivo; conditions: for CLz/F: single oral dose 2.5 mg/kg each, co-administered, plasma
Experimental: Male and female beagle dogs (n=4; 2 males and 2 females) were used in the study. A single oral dose of Alpelisib (2.5 mg/kg) and Compound 1 (^18O1-Alpelisib) (2.5 mg/kg) were co-administered (at a total dose of 5 mg/kg) in DMSO and 0.5% carboxymethyl cellulose sodium (CMC-Na) aqueous solution (5:95, v/v). Blood samples were collected for analysis of Alpelisib and ^18O1-Alpelisib at 0.25, 0.5, 1, 1.5, 2, 3, 4, 6, 8, 10, 12 and 24 h. In FIG. 4, lines labelled with -∘- and -Δ- represent the plasma concentrations of Alpelisib-^18O1 and Alpelisib, respectively, following oral administration of the same dose of Alpelisib-^18O1 and Alpelisib to the animals.

[2] = Pharmacokinetic studies in Sprague Dawley (SD) rats, oral gavage; format: in vivo; conditions: both doses tested (2.5 and 0.322 mg/kg), greatest effect at low dose
Experimental: (a) SD rats, six in a group (n=6), were grouped randomly. Compound 1 (Alpelisib-^18O1) and Alpelisib were mixed and adjusted to 1:1 molar ratio in dosing solution (1.25 mg/mL); and the dosing solution was administered to the animals, via oral gavage, at a dose level of 2.5 mg/kg. Blood samples were collected at pre-set time points following drug administration, at 0.167, 0.5, 1, 2, 3, 4, 6, 8, and 24 hours (h). The blood samples were converted to plasma samples using standard techniques, and the latter samples were analyzed to determine the concentrations of Compound 1 and Alpelisib. In FIG. 1a, lines labelled with -∘- and --Δ-- represent the plasma concentrations of Alpelisib-^18O1 and Alpelisib, respectively, following oral administration of the same molar dose of Alpelisib-^18O1 and Alpelisib to the animals.
(b) Similarly, Compound 1 (Alpelisib-^18O1) and Alpelisib were administered to the animals (SD rats, n=4), via oral gavage, at a low dose (dose level of 0.322 mg/kg). Blood samples were collected at pre-set time points following drug administration, at 0.167, 0.5, 1, 2, 4, 6, 8, 10 and 24 hours (h). The blood samples were converted to plasma samples using standard techniques, and the latter samples were analyzed to determine the concentrations of Compound 1 and Alpelisib. […]

[3] = M4 and M4-18O1 production in liver S9 culture media; format: in vitro ADME, monkey, human, mini pig, Wistar rat
Experimental: Stock solution (50 μL) containing equal molar concentration of Alpelisib and Alpelisib-^18O1 was diluted with pre-warmed (37° C., water bath) 0.1 M Tris-Acetate buffer; and the concentration of each compound in this working solution was 4.5 μM. In each incubation well were added the above working solution (50 μL) and a liver S9 solution (50 μL), mixed well. The sample was pre-incubated for 5 min, following by addition, to each well, of β-NADPH dosing solution (100 μL). The sample plate was incubated at 37° C., and analyzed at time points of 0, 15, 30, 60, and 240 min., in triplicates. Sample analysis: at a pre-set time-point, a stop solution (800 μL, acetonitrile) was added to each well; the sample was well-mixed (Vortex), and centrifuged at 12000 rpm for 5 minutes; the supernatant was transferred to analytical sample vial, and then analyzed with LC-MS/MS, for M4 and M4-^18O1. […] Liver S9 used in the experiment: (a) monkey liver S9, (b) pooled human S9, (c) mini pig liver S9, and (d) male Wistar rat Liver S9.

[4] = Pharmacokinetic studies in ICR mice, oral gavage; format: in vivo; conditions: same dose
Experimental: ICR mice, 48, in 6 groups (n=8), were grouped randomly. Compound 1 (Alpelisib-^18O1) and Alpelisib were mixed and adjusted to 1:1 molar ratio in dosing solution (1.25 mg/mL); and the dosing solution was administered to the animals, via oral gavage, at a dose level of 2.5 mg/kg. Blood samples were collected (a group of 8 animals for each time point) at time points, after dosing, at 0.5, 1, 2, 4, 8, and 12 h. The blood samples were converted to plasma samples using standard techniques, and the latter samples were analyzed to determine the concentrations of Compound 1 and Alpelisib. In FIG. 2, lines labelled with -∘- and --Δ-- represent the plasma concentrations of Alpelisib-^18O1 and Alpelisib, respectively, following oral administration of the same dose of Alpelisib-^18O1 and Alpelisib to the animals.

| SMILES | CLz/F [1] [mL/min/kg] | plasma concentration compared with Alpelisib [2] | plasma concentration compared with Alpelisib ([1]; oral, same dose) | concentration of the metabolite M4-18O1 compared to that of M4 from alpelisib ([3]; liver S9 (monkey, pooled human, mini pig, male Wistar rat), 37° C., β-NADPH, 0-240 min, equimolar co-incubation) | metabolism compared to that of Alpelisib ([3]; liver S9 incubation, taken together with PK results) | plasma concentration compared with Alpelisib [4] |
| --- | --- | --- | --- | --- | --- | --- |
| Cc1nc(NC(=O)N2CCC[C@H]2C(N)=O)sc1-c1ccnc(C(C)(C)C(F)(F)F)c1 [Alpelisib, N-(4-methyl-5-(2-(2,2,2-trifluoro-1,1-dimethylethyl)-4-pyridinyl)-2-thiazolyl)aminocarbonyl-L-prolinamide, reference compound] | 6.83 |  |  |  |  |  |
| Cc1nc(NC(=O)N2CCC[C@H]2C(N)=[18O])sc1-c1ccnc(C(C)(C)C(F)(F)F)c1 [Compound 1, N-(4-methyl-5-(2-(2,2,2-trifluoro-1,1-dimethylethyl)-4 pyridinyl)-2-thiazolyl)aminocarbonyl-L-prolin-^18O-amide] | 6.33 | higher than for Alpelisib | higher than for Alpelisib | decreased | reduced | higher than for Alpelisib |
